Key:
MPT pore [1] = experiment: Enzymatic assay (ADH/NADH oxidase/HRP/Amplex Red) of calcium-induced pyridine nucleotide release from isolated liver mitochondria, Resorufin fluorescence; format: biochemical, rat; details: BA 20 μM; calcium 100 μM; isolated liver mitochondria 0.125 mg/ml protein; FIG. 5
Description: FIG. 5 illustrates the recording of fluorescence intensity following calcium additions to isolated liver mitochondria in the assay mixture. Controls; only calcium (100 μM) was added. BA; the same amount of calcium (100 μM) was added to mitochondria incubated in the presence of 20 μM Bongrekig acid.
In one preferred embodiment, the assay for pyridine nucleotides measurement may comprise several enzymatic reactions—cyclic and/or coupled—which use oxidized or reduced form of nicotinamide adenine dinucleotides (NAD^+, NADH, respectively) as substrate, thereby providing a detectable final product (FIG. 1). In the first step shown in FIG. 1, alcohol dehydrogenase (ADH) converts ethanol to acetaldehyde in the presence of NAD^+, which is released from mitochondria and reduced to NADH. In the next reaction NADH oxidase (Ox) oxidizes NADH back to NAD^+, and hydrogen peroxide (H2O2) is produced from water in the process. In the last reaction, horseradish peroxidase (HRP) produces a detectable signal in the presence of hydrogen peroxide. […]
Experiments with isolated liver mitochondria were carried out in the same medium as those without; however, no substrate was added, since respiring mitochondria produce superoxide (O2^−). […] Leakage of H2O2 into the medium is expected to give a increase in fluorescence intensity which is not due to the release of pyridine nucleotides from mitochondria. […]

MPT pore [2] = experiment: Calcium-induced swelling of isolated liver mitochondria, light scattering at 540 nm; format: biochemical, rat; details: BA 20 μM; calcium 100 μM; no enzymes in medium; FIG. 6
Description: FIG. 6 illustrates calcium-induced swelling of mitochondria isolated from whole liver. The swelling is detected by recording the light scattering of mitochondrial suspension at 540 nm. Experimental conditions are the same as described in FIG. 5, except no enzymes were present in the medium.
The opening of the MPT pore leads to osmotic swelling of mitochondria, which can be detected as decreased light scattering. […] However, a more significant and progressive decrease in light scattering starting at about 300 sec. following the initial calcium pulse occurred.
Male Wistar rats weighing about 300 g were used for isolation of rat liver mitochondria. For examination of calcium-induced release of NAD^+, 0.125 mg/ml of mitochondrial protein were used. The mitochondria were incubated in 2ml of the reaction buffer containing all compounds required for the assay.

CO[C@H](C/C=C\C=C\CC/C=C/C[C@H](C)/C=C/C(=C\C(=O)O)CC(=O)O)/C(C)=C\C=C(/C)C(=O)O [BA, Bongkrekic acid]
increase in fluorescence following calcium addition (release of pyridine nucleotides) (MPT pore [1]): blocked
calcium-induced swelling of mitochondria (decrease in light scattering at 540 nm) (MPT pore [2]): inhibited

From patent publication US20050048596A1, “Assay for detecting changes in mitochondrial membrane permeability and method of using same” (priority 2003, published 2005)
